The source of these data is patent US20160030391A1, “METHODS AND COMPOSITIONS FOR IMPROVING COGNITIVE FUNCTION” (THE JOHNS HOPKINS UNIVERSITY, priority 2013, published 2016).

This assay deals with aged-impaired (AI) rats. Kind of assay: eight-arm Radial Arm Maze task, one-hour delay, aged-impaired rats. To be noted: for average no. of errors±SEM: one-hour delay; for effective in reducing the number of errors by AI rats in the radial arm maze: levetiracetam on its own. The format is in vivo, rat. The method, then:
The effects of levetiracetam on the spatial memory retention of aged-impaired (AI) rats were assessed in a Radial Arm Maze (RAM) behavioral task using vehicle control and five different dosage levels of levetiracetam (1.25 mg/kg/day, 2.5 mg/kg/day, 5 mg/kg/day, 10 mg/kg/day and 20 mg/kg/day). RAM behavioral tasks were preformed on ten AI rats. All six treatment conditions were tested on all ten rats, as described above for the MWM test. The RAM apparatus used consisted of eight equidistantly-spaced arms. An elevated maze arm (7 cm width x 75 cm length) projected from each facet of an octagonal center platform (30 cm diameter, 51.5 cm height). Clear side walls on the arms were 10 cm high and were angled at 65° to form a trough. A food well (4 cm diameter, 2 cm deep) was located at the distal end of each arm. Froot Loops™ (Kellogg Company) were used as rewards. Blocks constructed of Plexiglas™ (30 cm height x 12 cm width) could be positioned to prevent entry to any arm. Numerous extra maze cues surrounding the apparatus were also provided. The AI rats were initially subjected to a pre-training test (Chappell et al. Neuropharmacology 37: 481-487, 1998). The pre-training test consisted of a habituation phase (4 days), a training phase on the standard win-shift task (18 days) and another training phase (14 days) in which a brief delay was imposed between presentation of a subset of arms designated by the experimenter (e.g., 5 arms available and 3 arms blocked) and completion of the eight-arm win-shift task (i.e., with all eight arms available). In the habituation phase, rats were familiarized to the maze for an 8-minute session on four consecutive days. In each of these sessions food rewards were scattered on the RAM, initially on the center platform and arms and then progressively confined to the arms. After this habituation phase, a standard training protocol was used, in which a food pellet was located at the end of each arm. Rats received one trial each day for 18 days. Each daily trial terminated when all eight food pellets had been obtained or when either 16 choices were made or 15 minutes had elapsed. After completion of this training phase, a second training phase was carried out in which the memory demand was increased by imposing a brief delay during the trial. At the beginning of each trial, three arms of the eight-arm maze were blocked. Rats were allowed to obtain food on the five arms to which access was permitted during this initial ‘information phase’ of the trial. Rats were then removed from the maze for 60 seconds, during which time the barriers on the maze were removed, thus allowing access to all eight arms. Rats were then placed back onto the center platform and allowed to obtain the remaining food rewards during this ‘retention test’ phase of the trial. The identity and configuration of the blocked arms varied across trials. The number of “errors” the AI rats made during the retention test phase was tracked. An error occurred in the trial if the rats entered an arm from which food had already been retrieved in the pre-delay component of the trial, or if it re-visited an arm in the post-delay session that had already been visited. After completion of the pre-training test, rats were subjected to trials with more extended delay intervals, i.e., a one-hour delay, between the information phase (presentation with some blocked arms) and the retention test (presentation of all arms). During the delay interval, rats remained off to the side of the maze in the testing room, on carts in their individual home cages. AI rats were pretreated 30-40 minutes before daily trials with a one-time shot of the following six conditions: 1) vehicle control (0.9% saline solution); 2) levetiracetam (1.25 mg/kg/day); 3) levetiracetam (2.5 mg/kg/day); 4) levetiracetam (5 mg/kg/day); 5) levetiracetam (10 mg/kg/day); 6) levetiracetam (20 mg/kg/day); through intraperitoneal (i.p.) injection. Injections were given every other day with intervening washout days. […]

On to `CC[C@@H](C(N)=O)N1CCCC1=O` [levetiracetam, (2S)-2-(2-oxopyrrolidin-1-yl)butanamide], for which the “effective doses of levetiracetam used in the animal model” value (given acutely, AI rats) was 5 to 10 mg/kg. Also, the “average no. of errors±SEM” value runs as follows: (levetiracetam 5 mg/kg/day i.p.) 0.75±0.32; (levetiracetam 10 mg/kg/day i.p.) 0.80±0.27. Also, for the setting “levetiracetam 20 mg/kg”, the “performance of AI rats in the radial maze task” value is “fails to improve the performance”. Moreover, the “effective in reducing the number of errors by AI rats in the radial arm maze” value by setting is: (1.25 mg/kg) “not”; (2.5 mg/kg) “not”; (5-10 mg/kg) “effective”.
